Several values for one entry are separate records, joined by “and”; a condition that tells them apart may be missing. Equal values may be shown once. Toxic doses and inconclusive results are not listed.
Test system: BDF1 mice, P388 leukemia ip, median survival T/C
Test: NCI In Vivo Anticancer Drug Screen. Data for tumor model P388 Leukemia (intraperitoneal) in B6D2F1 (BDF1) mice
Settings: endpoint: median survival time, higher = longer survival
Method in brief: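 Vehicle-dosed animals serve as the reference; survival of compound-dosed, tumour-implanted mice is divided by it.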

[1] = dose: 100.0 mg/kg/injection, schedule: Q04DX003 (ip), vehicle: Klucel (hydroxypropylcellulose) (HPC)
[2] = dose: 200.0 mg/kg/injection, schedule: Q04DX003 (ip), vehicle: Klucel (hydroxypropylcellulose) (HPC)
[3] = dose: 50.0 mg/kg/injection, schedule: Q01DX009 (ip), vehicle: saline with Tween-80
[4] = dose: 50.0 mg/kg/injection, schedule: Q04DX003 (ip), vehicle: saline with Tween-80
[5] = dose: 100.0 mg/kg/injection, schedule: Q04DX003 (ip), vehicle: saline with Tween-80
[6] = dose: 100.0 mg/kg/injection, schedule: Q01DX009 (ip), vehicle: saline with Tween-80
[7] = dose: 200.0 mg/kg/injection, schedule: Q01DX009 (ip), vehicle: saline with Tween-80
[8] = dose: 50.0 mg/kg/injection, schedule: Q01DX009 (ip), vehicle: saline
[9] = dose: 200.0 mg/kg/injection, schedule: Q04DX003 (ip), vehicle: saline with Tween-80
[10] = dose: 400.0 mg/kg/injection, schedule: Q04DX003 (ip), vehicle: saline with Tween-80
[11] = dose: 100.0 mg/kg/injection, schedule: Q01DX009 (ip), vehicle: Klucel (hydroxypropylcellulose) (HPC)
[12] = dose: 400.0 mg/kg/injection, schedule: Q01DX009 (ip), vehicle: Klucel (hydroxypropylcellulose) (HPC)

For `CC(C)Sc1nc(N)nc2nc[nH]c12`, the T/C (dose: 6.25 mg/kg/injection, schedule: Q01DX009 (ip), vehicle: Klucel (hydroxypropylcellulose) (HPC)) was 100 % of control, the T/C (dose: 12.5 mg/kg/injection, schedule: Q01DX009 (ip), vehicle: Klucel (hydroxypropylcellulose) (HPC)) was 105 % of control and the T/C (dose: 25.0 mg/kg/injection, schedule: Q01DX009 (ip), vehicle: Klucel (hydroxypropylcellulose) (HPC)) was 100 % of control. The T/C (dose: 50.0 mg/kg/injection, schedule: Q01DX009 (ip), vehicle: Klucel (hydroxypropylcellulose) (HPC)) was 100 % of control, the T/C [1] was 105 % of control and the T/C [2] was 105 % of control.
`CCCCCCCCC1SC1CCCCCCCC(=O)OCCN(C)C(=O)CCCCCCCC1SC1CCCCCCCC` (stereo not drawn) was tested, and the T/C (dose: 100.0 mg/kg/injection, schedule: Q04DX003 (ip), vehicle: other) was 100 % of control, the T/C (dose: 200.0 mg/kg/injection, schedule: Q04DX003 (ip), vehicle: other) was 100 % of control and the T/C (dose: 400.0 mg/kg/injection, schedule: Q04DX003 (ip), vehicle: other) was 100 % of control.
With `C=C1N(c2nc(Cl)nc(Cl)n2)c2ccccc2C1(C)C` the T/C (dose: 12.5 mg/kg/injection, schedule: Q01DX009 (ip), vehicle: saline with Tween-80) was 109 % of control and 111 % of control, the T/C (dose: 25.0 mg/kg/injection, schedule: Q01DX009 (ip), vehicle: saline with Tween-80) was 108 % of control and 112 % of control and the T/C [3] was 116 % of control.
`CCCOc1ccc(-c2nc(-c3ccc(N=Cc4ccc(N(CCOS(C)(=O)=O)CCOS(C)(=O)=O)cc4C)cc3)cs2)cc1` was tested, and the T/C (dose: 25.0 mg/kg/injection, schedule: Q04DX003 (ip), vehicle: saline with Tween-80) was 156 % of control, the T/C [4] was 175 % of control and the T/C [5] was 166 % of control.
`CP(O)(=S)C1CCCCC1` (stereo not drawn) (tested in a mixture with another compound) was tested, and the T/C (dose: 50.0 mg/kg/injection, schedule: Q01DX005 (ip), vehicle: saline) was 94 % of control, the T/C (dose: 100.0 mg/kg/injection, schedule: Q01DX005 (ip), vehicle: saline) was 91 % of control and the T/C (dose: 200.0 mg/kg/injection, schedule: Q01DX005 (ip), vehicle: saline) was 90 % of control.
In the case of `CCC[CH2][Sn]1([CH2]CCC)[O]OC(C)(CC)[O]1` (stereo not drawn), the T/C (dose: 0.69 mg/kg/injection, schedule: Q01DX009 (ip), vehicle: saline with Tween-80) is reported as 108 % of control, the T/C (dose: 1.04 mg/kg/injection, schedule: Q01DX009 (ip), vehicle: saline with Tween-80) is reported as 104 % of control and the T/C (dose: 1.56 mg/kg/injection, schedule: Q01DX009 (ip), vehicle: saline with Tween-80) is reported as 120 % of control. The T/C (dose: 2.35 mg/kg/injection, schedule: Q01DX009 (ip), vehicle: saline with Tween-80) was 104 % of control.
With `COC(=O)CC12CC3(C)CC(C)(C1)CC(CC(=O)OC)(C3)C2` the T/C [3] was 102 % of control, the T/C [6] was 102 % of control and the T/C [7] was 117 % of control.
`COc1cc(NC(=O)CC(C)=O)cc2c(C)cc(=O)[nH]c12` was tested, and the T/C (dose: 75.0 mg/kg/injection, schedule: Q04DX003 (ip), vehicle: Klucel (hydroxypropylcellulose) (HPC)) was 91 % of control, the T/C (dose: 150.0 mg/kg/injection, schedule: Q04DX003 (ip), vehicle: Klucel (hydroxypropylcellulose) (HPC)) was 100 % of control and the T/C (dose: 300.0 mg/kg/injection, schedule: Q04DX003 (ip), vehicle: Klucel (hydroxypropylcellulose) (HPC)) was 104 % of control.
`CC(=O)OC1OC(COC(c2ccccc2)(c2ccccc2)c2ccccc2)C(OCc2ccccc2)C(OCc2ccccc2)C1OC(C)=O` (stereo not drawn) was tested, and the T/C (dose: 21.9 mg/kg/injection, schedule: Q01DX009 (ip), vehicle: other) was 95 % of control, the T/C (dose: 43.8 mg/kg/injection, schedule: Q01DX009 (ip), vehicle: other) was 98 % of control and the T/C (dose: 87.5 mg/kg/injection, schedule: Q01DX009 (ip), vehicle: other) was 93 % of control. For the same compound, the T/C (dose: 175.0 mg/kg/injection, schedule: Q01DX009 (ip), vehicle: other) was 88 % of control and the T/C (dose: 350.0 mg/kg/injection, schedule: Q01DX009 (ip), vehicle: other) was 88 % of control.
With `COC[C@H]1OC(=O)c2coc3c2[C@@]1(C)C1=C(C3=O)[C@@H]2CCC(=O)[C@@]2(C)C[C@H]1OC(C)=O` the T/C (dose: 0.16 mg/kg/injection, schedule: Q01DX009 (ip), vehicle: saline) was 108 % of control, the T/C (dose: 0.31 mg/kg/injection, schedule: Q01DX009 (ip), vehicle: saline) was 115 % of control and the T/C (dose: 0.63 mg/kg/injection, schedule: Q01DX009 (ip), vehicle: saline) was 116 % of control. The T/C (dose: 2.5 mg/kg/injection, schedule: Q01DX009 (ip), vehicle: saline) was 117 % of control.
In the case of `O=C1CCCN1.O=C1CCCN1.[Br][Co][Br]`, the T/C (dose: 25.0 mg/kg/injection, schedule: Q01DX009 (ip), vehicle: saline) is reported as 108 % of control, the T/C (dose: 44.0 mg/kg/injection, schedule: Q01DX009 (ip), vehicle: saline) is reported as 109 % of control and the T/C [8] is reported as 113 % of control. For the same compound, the T/C (dose: 50.0 mg/kg/injection, schedule: Q04DX003 (ip), vehicle: saline) was 105 % of control and the T/C (dose: 100.0 mg/kg/injection, schedule: Q04DX003 (ip), vehicle: saline) was 111 % of control.
In the case of `CC(C)C(OCc1ccccc1)C(=O)O` (stereo not drawn), the T/C [4] is reported as 100 % of control, the T/C [5] is reported as 108 % of control and the T/C [9] is reported as 108 % of control. For the same compound, the T/C [10] was 108 % of control.
`C=CCCCCCCCCC(=O)N(CC#N)CC(C)C` was tested, and the T/C [3] was 100 % of control, the T/C [6] was 109 % of control and the T/C [7] was 109 % of control.
With `O=P(Oc1cccc2ccccc12)(N1CC1)N1CC1` the T/C [6] was 181 % of control, the T/C [5] was 122 % of control and the T/C (dose: 150.0 mg/kg/injection, schedule: Q01DX009 (ip), vehicle: saline with Tween-80) was 231 % of control. For the same compound, the T/C [9] was 150 % of control, the T/C (dose: 264.0 mg/kg/injection, schedule: Q04DX003 (ip), vehicle: saline with Tween-80) was 200 % of control and the T/C [10] was 181 % of control and 220 % of control.
For `[CH3][Ga][CH3].[CH3][Ga][CH3].[CH3][Ga][CH3].[CH3][Ga][CH3].[OH3+].[OH3+].[OH3+].[OH3+]`, the T/C (dose: 2.5 mg/kg/injection, schedule: Q01DX009 (ip), vehicle: saline with Tween-80) was 90 % of control.
For `C[C@]12CC[C@@H]3c4ccc(O)cc4CC[C@H]3[C@@H]1CC[C@@H]2OC(=O)CCC1CCCC1`, the T/C [11] was 100 % of control, the T/C [1] was 104 % of control and the T/C (dose: 200.0 mg/kg/injection, schedule: Q01DX009 (ip), vehicle: Klucel (hydroxypropylcellulose) (HPC)) was 95 % of control. For the same compound, the T/C [2] was 104 % of control, the T/C [12] was 104 % of control and the T/C (dose: 400.0 mg/kg/injection, schedule: Q04DX003 (ip), vehicle: Klucel (hydroxypropylcellulose) (HPC)) was 104 % of control.
With `CC(=O)NC(N)=O` the T/C (dose: 100.0 mg/kg/injection, schedule: Q01DX001 (ip), vehicle: saline with Tween-80) was 100 % of control, the T/C (dose: 200.0 mg/kg/injection, schedule: Q01DX001 (ip), vehicle: saline with Tween-80) was 100 % of control and the T/C (dose: 400.0 mg/kg/injection, schedule: Q01DX001 (ip), vehicle: saline with Tween-80) was 109 % of control.
For `O=C1c2ccccc2C(=O)N1CNc1ncccn1`, the T/C (dose: 6.25 mg/kg/injection, schedule: Q01DX005 (ip), vehicle: saline with Tween-80) was 95 % of control, the T/C (dose: 12.5 mg/kg/injection, schedule: Q01DX005 (ip), vehicle: saline with Tween-80) was 98 % of control and the T/C (dose: 25.0 mg/kg/injection, schedule: Q01DX005 (ip), vehicle: saline with Tween-80) was 90 % of control. For the same compound, the T/C (dose: 100.0 mg/kg/injection, schedule: Q01DX005 (ip), vehicle: saline with Tween-80) was 108 % of control and the T/C (dose: 200.0 mg/kg/injection, schedule: Q01DX005 (ip), vehicle: saline with Tween-80) was 105 % of control.
With `COc1ccc2c(c1)CCN1C2CCN2C(=O)CCC21` (stereo not drawn) the T/C (dose: 100.0 mg/kg/injection, schedule: Q01DX009 (ip), vehicle: saline sonified) was 104 % of control, the T/C (dose: 200.0 mg/kg/injection, schedule: Q01DX009 (ip), vehicle: saline sonified) was 113 % of control and the T/C (dose: 400.0 mg/kg/injection, schedule: Q01DX009 (ip), vehicle: saline sonified) was 100 % of control.
In the case of `CCOC(=O)Cc1csc(NN=C(C)C)n1`, the T/C [8] is reported as 108 % of control and the T/C (dose: 100.0 mg/kg/injection, schedule: Q01DX009 (ip), vehicle: saline) is reported as 110 % of control.
`C#C/C=C/CC1O/C(=C(\Br)CC)C/C=C\CC1Cl` (stereo not drawn) was tested, and the T/C (dose: 12.5 mg/kg/injection, schedule: Q01DX009 (ip), vehicle: other) was 99 % of control, the T/C (dose: 25.0 mg/kg/injection, schedule: Q01DX009 (ip), vehicle: other) was 114 % of control and the T/C (dose: 50.0 mg/kg/injection, schedule: Q01DX009 (ip), vehicle: other) was 99 % of control.
With `O=S(=O)(O)c1ccc(Nc2ccccc2)cc1` the T/C [11] was 100 % of control and the T/C [12] was 104 % of control.
With `CCN(CC)c1oc2ccc3ccccc3c2c(=O)c1Cl` the T/C [3] was 97 % of control, the T/C [6] was 94 % of control and the T/C [7] was 92 % of control.

— PubChem BioAssay AID328 (DTP/NCI, 2004)
